The values that follow come from patent publication US20220313620A1, “COMPOSITION FOR PREVENTING AND TREATING TAUOPATHIES” (SERVICIO ANDALUZ DE SALUD, priority 2019, published 2022).

Type in all cases: in vivo, Wistar rats
For one test, the system named is tau protein. Kind of test: Hippocampal tau phosphorylation and total tau (western blot) after 10 days of oral drinking. The note with it: oral by drinking 100 mg/Kg for 10 days, hippocampus. As for the experimental part:
(§1) Animal experimental procedures were carried out in accordance with the European Communities directive 2010/63/EU and Spanish legislation (Real Decreto 53/2013). The protocol was approved by the Research and approved by Ethics Committee for Animal Experiments of the University of Malaga, Spain. In accordance with the ARRIVE guidelines, all efforts were made to minimize animal suffering and to reduce the number of animals used per experimental group. Chronic drinking experiments on Wistar rats were performed on 20 male rats. All adult rats, ageing 2 months (≈300 g of body weight), were provided by Charles River Laboratories (Barcelona, Spain). The animals were housed individually under a standard 12 h light-dark cycle in a room with temperature and humidity control. Water and rat chow pellets were provided ad libitum throughout the course of the present study.
(§2) Caromax®-D-Pinitol (3-O-methyl-d-chiro-inositol, DPIN, 98% purity) and Caromax®-D-Chiro-inositol (cis-1,2,3-trans-3,5,6-cyclohexanehexol, DCI) were provided by Euronutra SL (Málaga, Spain). They were dissolved in water to orally daily administration by drinking and/or gavage at dose of 100 mg/Kg of body weight (BW) in a 1 ml/kg of BW volume to Zucker and Wistar rats for 4 weeks (28 days) and 10 days, respectively (FIG. 1). During the drinking treatments, the concentration of inositols in the water were updated considering the daily increase of BW of the rats and the possible loss of water by evaporation.
(§3) Brain extract. Frozen brain samples (17 mg per sample) were homogenized in 1 mL of cold RIPA lysis buffer (50 mM Tris-HCl pH 7.4, 150 mM NaCl, 0.5% NaDOC, 1 mM EDTA, 1% Triton, 0.1% SDS, 1 mM Na3VO4, 1 mM NaF) supplemented with a protease cocktail (Hoffmann-Roche). The suspension was incubated for 2 hours at 4° C., followed by centrifugation at 12,000 rpm for 15 minutes at 4° C. The supernatant was transferred to a new clean centrifuge tube, and Bradford colorimetric method was used to determine the concentration of the total protein. The protein extracts were diluted 1:1 in loading buffer (DTT 2X) and heated for 5 minutes at 99° C. before being subjected to electrophoresis.
Western Blot Analysis. The tissue protein (10-15 μg) was subjected to electrophoresis on 4-12% Criterion XT Precast Bis-Tris gels (Bio-Rad, USA) for 30 minutes at 80V and 2 h at 150V. […] Bands were quantified by densitometric analysis using ImageJ software (Rasband, WS, ImageJ, US National Institutes of Health, Bethesda, Md., USA). […] The results were expressed as the protein/α-Adaptin ratio or phosphorylated/total protein ratio and normalized to the control group (Y axis represents ‘fold mean of the control values’).
(§4) All data are expressed as mean±SEM. […]
In general terms: In western blotting, separated proteins are transferred to a membrane and probed.

In test [1] the test system is Cyclin Dependent Kinase 5 (CDK5). Kind of test: Hippocampal CDK5, p35 and p25 protein levels (western blot) after 10 days of oral drinking. The note with it: oral by drinking 100 mg/Kg for 10 days, hippocampus, FIG. 8A. As for the experimental part: as §1, §2
Brain extract. […]
(§5) Western Blot Analysis. […] Bands were quantified by densitometric analysis using ImageJ software (Rasband, WS, ImageJ, US National Institutes of Health, Bethesda, Md., USA). […] The results were expressed as the protein/α-Adaptin ratio or phosphorylated/total protein ratio and normalized to the control group (Y axis represents ‘fold mean of the control values’).
as §4

Test [2] relates to glycogen synthase kinase-3β (GSK-3β). Kind of test: Hippocampal GSK-3β phosphorylation and total level (western blot) after 10 days of oral administration. The following applies: oral 100 mg/Kg for 10 days, hippocampus. The procedure:
as §1, §2, §3
Western Blot Analysis. The tissue protein (10-15 μg) was subjected to electrophoresis on 4-12% Criterion XT Precast Bis-Tris gels (Bio-Rad, USA) for 30 minutes at 80V and 2 h at 150V. Proteins were transferred onto a 0.2 μm nitrocellulose membrane (Bio-Rad, USA) for 1 h at 80V by wet transfer equipment. The membrane was washed twice for 5 min in TBST (10 mM Tris-HCl, 150 mM NaCl, 0.1% Tween 20, pH 7.6) and blocked with 2% Bovine Serum Albumin-Tris Buffered Saline Tween 20 (BSA-TBST) for one hour at room temperature on a shaker platform. Subsequently, the membrane was incubated with respective primary antibodies overnight at 4° C. diluted in 2% BSA-TBST (Table 2 for additional information). The following day, the membrane was washed three times for 5 min with TBST. An appropriate HRP conjugated rabbit/mouse secondary antibody (Promega) was diluted 1:10000 in 2% BSA-TST and incubated with the membrane for 1 h shaking at room temperature. Finally, the membrane was washed as above and exposed to chemiluminescent reagent (Santa Cruz, Biotechnology Inc.) for 5 min. Stripping/reproving steps were used when necessary. Respective membrane bound protein was then visualized by Chemiluminescence (ChemiDoc Imaging System, Bio-Rad). Bands were quantified by densitometric analysis using ImageJ software (Rasband, WS, ImageJ, US National Institutes of Health, Bethesda, Md., USA). Normalization was performed using a reference protein of the same membrane, the α-Adaptin. The results were expressed as the protein/α-Adaptin ratio or phosphorylated/total protein ratio and normalized to the control group (Y axis represents ‘fold mean of the control values’).
All data are expressed as mean±SEM. Statistical analysis was undertaken for studies where each group size was of, at least, n=5. […]

A further test deals with Protein Kinase A (PKA). In words: Hippocampal PKA (western blot) after 10 days of oral drinking. The note with it: oral by drinking 100 mg/Kg for 10 days, hippocampus, FIG. 10A.2. As for the experimental part: as §1, with “study. […]” for “study.”
as §5, §4

Regarding `COC1[C@@H](O)[C@@H](O)C(O)[C@H](O)[C@H]1O` (stereo partly drawn) [DPIN, (1S,2S,4S,5R)-6-methoxycyclohexane-1,2,3,4,5-pentol], the “quantity of phospho-tau (AT8: Ser202, Thr205) compared with vehicle group” value with tau protein (FIG. 7A.1) is reported as “dropped to more than half”. Also, the “relative protein levels of total tau compared with vehicle group” value in the test on tau protein (FIG. 7A.2) is recorded as “rise”. In test [1], the “amount of p25” value is reported as “significantly decreased”, the “amount of p35 subunit” value was “significantly decreased” and the “total amount of CDK5” value is “does not vary”. Also, the “GSK-3β serine-9 phosphorylation” value in test [2] (FIG. 9A.1) is reported as “no effect”. Also, the “GSK-3β tyrosine-216 phosphorylation” value in test [2] (FIG. 9A.2) is “no effect”. Besides, the “GSK-3β kinase activity (Ser9/Tyr216)” value in test [2] (FIG. 9A.3) is listed as “neither enhance nor inhibition”. The “total amount of PKA” value in the test with Protein Kinase A (PKA) is recorded as “significant increase”.
